As usually defined, the IC50 is the concentration at which inhibition is half-maximal.

For experiment [1], the target named is His-Brd2(60-472) (Homo sapiens (Human), UniProt P25440). As to the kind of experiment: TR-FRET in-vitro binding assay for BRD2. To be noted: biochemical. The method, boiled down:
(§1)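 Assay buffer HEPES pH 7.5/NaCl/Tween20/BSA; protein solution 45 nM, peptide solution 60 nM acetyl-H4 (AcK5,8,12,16). Incubated 30 °C for 35 min; Eu-anti-His6 and SA-APC detection, TR-FRET read.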
A general note: Time-resolved FRET reads energy transfer from a long-lived donor to a nearby acceptor.

Experiment [2] deals with nuclear BRD4-NUT foci in HCC2494 NUT midline carcinoma cells (Homo sapiens (Human), UniProt O60885+Q86Y26). As to the kind of experiment: Nut-foci formation assay. The experiment is classed as cell-based. To be noted: 24 hours, read-out: HCS Brd4-NUT IC50. As to the method:
HCC2494 NUT midline carcinoma cells (expressing BRD4-NUT-fusion) were obtained from the University of Texas Southwestern and cultured in RPMI-1640 medium containing 10% Foetal Calf Serum at 37° C. in a humidified 5% CO2 incubator.
Compound-mediated inhibition of BRD4 activity was monitored by quantification of the number and intensity of nuclear BRD4-NUT foci using automated immunofluorescence microscopy. Briefly, 5000 cells in 20 μL fresh medium were seeded into Poly-D-Lysine-precoated 384-well plates and incubated overnight at 37° C. and 5% CO2, followed by addition of 5 μl medium containing compound dilutions at 5-fold their final intended concentration. Dose-response effects were assessed by 3-fold serial dilutions of the test compound, starting at 10 μM. Following incubation of the cells for 24 hours at 37° C. and 5% CO2, the cells were fixed by incubation with 3.7% formaldehyde for 10 min, followed by immunofluorescence staining using rabbit anti-NUT (Cell Signaling Technologies, Cat#3625) as primary, and AlexaFluor488-labeled goat anti-rabbit (Invitrogen, Cat#A11008) as secondary antibody (latter complemented with 1 μg/mL Hoechst33342 as DNA dye). Assay plates were imaged using the appropriate filter sets on the Cellomics VTi automated fluorescence microscopy platform (ThermoFisher Scientific) and the population average of the number of NUT-foci per nucleus is quantified using the Cellomics Spot Detection BioApplication image analysis algorithm (ThermoFisher Scientific). The effect of a particular test compound concentration on NUT-foci number and intensity is expressed as percentage of the value obtained for cells treated with vehicle only (DMSO, 0.1% final concentration), which was set as 100. Compound concentrations leading to half-maximal (IC50) inhibition of the aforementioned readout parameters were determined using standard four parameter curve fitting.

Experiment [3] addresses His-Brd3(20-477) (Homo sapiens (Human), UniProt Q15059). Put plainly: TR-FRET in-vitro binding assay for BRD3. The conditions noted are these: biochemical. The method, boiled down:
as §1

Chain of His-Brd3(20-477) (Q15059 20-477): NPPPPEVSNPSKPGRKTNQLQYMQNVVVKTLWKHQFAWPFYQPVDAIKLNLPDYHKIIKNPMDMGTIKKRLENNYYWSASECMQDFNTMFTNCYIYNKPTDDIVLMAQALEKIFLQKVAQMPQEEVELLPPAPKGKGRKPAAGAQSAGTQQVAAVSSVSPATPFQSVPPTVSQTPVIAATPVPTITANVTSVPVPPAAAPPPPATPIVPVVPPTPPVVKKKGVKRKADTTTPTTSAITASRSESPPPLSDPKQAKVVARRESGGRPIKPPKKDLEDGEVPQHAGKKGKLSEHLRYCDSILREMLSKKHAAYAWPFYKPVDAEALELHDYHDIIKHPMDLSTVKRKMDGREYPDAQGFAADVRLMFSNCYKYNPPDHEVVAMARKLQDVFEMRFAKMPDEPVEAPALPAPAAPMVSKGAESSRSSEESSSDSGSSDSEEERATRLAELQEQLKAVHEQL
Chain of His-Brd2(60-472) (P25440 60-472): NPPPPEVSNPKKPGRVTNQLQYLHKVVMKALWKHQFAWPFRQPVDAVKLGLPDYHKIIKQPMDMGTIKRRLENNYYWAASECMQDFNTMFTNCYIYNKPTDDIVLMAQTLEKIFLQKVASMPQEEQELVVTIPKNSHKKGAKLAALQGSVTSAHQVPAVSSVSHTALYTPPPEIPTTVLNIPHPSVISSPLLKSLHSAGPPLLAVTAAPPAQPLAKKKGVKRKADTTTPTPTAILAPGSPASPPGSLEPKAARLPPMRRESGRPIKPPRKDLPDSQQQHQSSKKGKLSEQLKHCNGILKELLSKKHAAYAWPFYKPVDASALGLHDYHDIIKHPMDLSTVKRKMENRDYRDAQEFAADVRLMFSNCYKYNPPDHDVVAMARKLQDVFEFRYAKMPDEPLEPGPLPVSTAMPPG

Turning to `COc1ncc(-n2nc(C)c3c2C(=O)N(c2cc(C)c(=O)n(C)c2)C3c2ccc(Cl)cc2)c(OC)n1` (racemic) [Example 52, 4-(4-chlorophenyl)-1-(2,4-dimethoxypyrimidin-5-yl)-5-(1,5-dimethyl-6-oxo-1,6-dihydropyridin-3-yl)-3-methyl-4,5-dihydropyrrolo[3,4-c]pyrazol-6(1H)-one], the IC50 in experiment [1] amounted to 0.063 µM; in experiment [2], 0.117 µM; in experiment [3] it was 0.069 µM.
In the same order, the values of `Cc1nn(-c2ccnn2C)c2c1C(c1ccc(Cl)cc1)N(c1cc(C)c(=O)n(C)c1)C2=O` (racemic) [Example 74, 4-(4-chlorophenyl)-5-(1,5-dimethyl-6-oxo-1,6-dihydropyridin-3-yl)-3-methyl-1-(1-methyl-1H-pyrazol-5-yl)-4,5-dihydropyrrolo[3,4-c]pyrazol-6(1H)-one] are 0.071 µM, 0.0442 µM and 0.091 µM.
Taken in the same sequence, the figures for `Cc1cc(N2C(=O)c3c(cnn3C3CC3)C2c2ccc(Cl)cc2)cn(C)c1=O` (centres unmarked) [Example 34, 4-(4-chlorophenyl)-1-cyclopropyl-5-(1,5-dimethyl-6-oxo-1,6-dihydropyridin-3-yl)-4,5-dihydropyrrolo[3,4-c]pyrazol-6(1H)-one] were 0.095 µM, 0.202 µM and 0.11 µM.
Taken in the same sequence, the figures for `Cn1cc(N2C(=O)c3c(c(C(F)(F)F)nn3C3CC3)C2c2ccc(Cl)cc2)cc(Cl)c1=O` (centres unmarked) [Example 44, 5-(5-chloro-1-methyl-6-oxo-1,6-dihydropyridin-3-yl)-4-(4-chlorophenyl)-1-cyclopropyl-3-(trifluoromethyl)-4,5-dihydropyrrolo[3,4-c]pyrazol-6(1H)-one] were 0.17 µM, 0.164 µM and 0.28 µM.
Turning to `Cc1nn(C2CC2)c2c1[C@@H](c1ccc(Cl)cc1)N(c1cc(C)c(=O)n(C)c1)C2=O` [Example 49, (R)-4-(4-chlorophenyl)-1-cyclopropyl-5-(1,5-dimethyl-6-oxo-1,6-dihydropyridin-3-yl)-3-methyl-4,5-dihydropyrrolo[3,4-c]pyrazol-6(1H)-one], the IC50 was found to be 0.015 µM in experiment [1], 0.0341 µM in experiment [2] and 0.019 µM in experiment [3].
In the case of `Cc1nn(C2CC2)c2c1[C@@H](c1ccc(Cl)cc1)N(c1cc(Cl)c(=O)n(C)c1)C2=O` [Example 51, (R)-5-(5-chloro-1-methyl-6-oxo-1,6-dihydropyridin-3-yl)-4-(4-chlorophenyl)-1-cyclopropyl-3-methyl-4,5-dihydropyrrolo[3,4-c]pyrazol-6(1H)-one], the IC50 in experiment [1] stood at 0.017 µM; in experiment [2] it was 0.0764 µM; in experiment [3], 0.021 µM.
Taken in the same sequence, the figures for `COc1ncc(-n2nc3c(c2C(C)C)C(c2ccc(Cl)cc2)N(c2ccc4onc(C)c4c2)C3=O)c(OC)n1` (centres unmarked) [Example 54, 4-(4-chlorophenyl)-2-(2,4-dimethoxypyrimidin-5-yl)-3-isopropyl-5-(3-methylbenzo-[d]isoxazol-5-yl)-4,5-dihydropyrrolo[3,4-c]pyrazol-6(2H)-one] were 0.48 µM, 0.49 µM and 0.3 µM.
In the same order, the values of `COc1ncc(-n2nc3c(c2C)C(c2ccc(Cl)cc2)N(c2cc(Cl)c(=O)n(C)c2)C3=O)c(OC)n1` (centres unmarked) [Example 55, 5-(5-chloro-1-methyl-6-oxo-1,6-dihydropyridin-3-yl)-4-(4-chlorophenyl)-2-(2,4-dimethoxypyrimidin-5-yl)-3-methyl-4,5-dihydropyrrolo[3,4-c]pyrazol-6(2H)-one] are 0.098 µM, 0.0541 µM and 0.079 µM.
In the same order, the values of `CCc1nn(C2CC2)c2c1C(c1ccc(Cl)cc1)N(c1cc(C)c3nnc(C)n3c1)C2=O` (centres unmarked) [Example 70, 4-(4-chlorophenyl)-1-cyclopropyl-5-(3,8-dimethyl-[1,2,4]triazolo[4,3-a]pyridin-6-yl)-3-ethyl-4,5-dihydropyrrolo[3,4-c]pyrazol-6(1H)-one] are 0.031 µM, 0.0114 µM and 0.029 µM.
For the compound `COc1ncccc1-n1nc(C)c2c1C(=O)N(c1cc(Cl)c(=O)n(C)c1)C2c1ccc(Cl)cc1` (centres unmarked) [Example 72, 5-(5-chloro-1-methyl-6-oxo-1,6-dihydropyridin-3-yl)-4-(4-chlorophenyl)-1-(2-methoxypyridin-3-yl)-3-methyl-4,5-dihydropyrrolo[3,4-c]pyrazol-6(1H)-one], the half-inhibitory concentration (IC50) in experiment [1] was determined as 0.06 µM; in experiment [2], 0.141 µM; in experiment [3], 0.073 µM.
In the same order, the values of `Cc1cc(N2C(=O)c3nn(C)c(O)c3C2c2ccc(Cl)cc2)cn(C)c1=O` (centres unmarked) [Example 73, 4-(4-chlorophenyl)-5-(1,5-dimethyl-6-oxo-1,6-dihydropyridin-3-yl)-3-hydroxy-2-methyl-4,5-dihydropyrrolo[3,4-c]pyrazol-6(2H)-one] are 0.2 µM, over 10 µM and 0.2 µM.
On to `CCOc1c2c(nn1C)C(=O)N(c1cc(C)c(=O)n(C)c1)C2c1ccc(Cl)cc1` (centres unmarked) [Example 76, 4-(4-chlorophenyl)-5-(1,5-dimethyl-6-oxo-1,6-dihydropyridin-3-yl)-3-ethoxy-2-methyl-4,5-dihydropyrrolo[3,4-c]pyrazol-6(2H)-one], for which the concentration for half-maximal inhibition (IC50) came to 0.1 µM in experiment [1], 0.106 µM in experiment [2] and 0.1 µM in experiment [3].
For the compound `COc1c2c(nn1C)C(=O)N(c1cc(C)c(=O)n(C)c1)C2c1ccc(Cl)cc1` (centres unmarked) [Example 77, 4-(4-chlorophenyl)-5-(1,5-dimethyl-6-oxo-1,6-dihydropyridin-3-yl)-3-methoxy-2-methyl-4,5-dihydropyrrolo[3,4-c]pyrazol-6(2H)-one], the concentration for half-maximal inhibition (IC50) in experiment [2] was found to be 0.0995 µM.
On to `CCc1nn(CCO)c2c1C(c1ccc(Cl)cc1)N(c1cc(C)c(=O)n(C)c1)C2=O` (centres unmarked) [Example 78, 4-(4-chlorophenyl)-5-(1,5-dimethyl-6-oxo-1,6-dihydropyridin-3-yl)-3-ethyl-1-(2-hydroxyethyl)-4,5-dihydropyrrolo[3,4-c]pyrazol-6(1H)-one], for which the results for the IC50 in experiment [1], in experiment [2] and in experiment [3] were 0.079 µM, 0.0395 µM and 0.057 µM, respectively.
In the same order, the values of `CCc1nn(CCO)c2c1C(c1ccc(Cl)cc1)N(c1cc(C)c3onc(C)c3c1)C2=O` (centres unmarked) [Example 79, 4-(4-chlorophenyl)-5-(3,7-dimethylbenzo[d]isoxazol-5-yl)-3-ethyl-1-(2-hydroxyethyl)-4,5-dihydropyrrolo[3,4-c]pyrazol-6(1H)-one] are 0.11 µM, 0.15 µM and 0.086 µM.
Turning to `CCc1c2c(nn1CCO)C(=O)N(c1cc(C)c3onc(C)c3c1)C2c1ccc(Cl)cc1` (centres unmarked) [Example 80, 4-(4-chlorophenyl)-5-(3,7-dimethylbenzo[d]isoxazol-5-yl)-3-ethyl-2-(2-hydroxyethyl)-4,5-dihydropyrrolo[3,4-c]pyrazol-6(2H)-one], the figures for the IC50 in experiment [1], in experiment [2] and in experiment [3] were 0.059 µM, 0.178 µM and 0.036 µM, respectively.
In the same order, the values of `Cc1ncccc1-n1nc2c(c1C)C(c1ccc(Cl)cc1)N(c1cc(C)c(=O)n(C)c1)C2=O` (centres unmarked) [Example 81, 4-(4-chlorophenyl)-5-(1,5-dimethyl-6-oxo-1,6-dihydropyridin-3-yl)-3-methyl-2-(2-methylpyridin-3-yl)-4,5-dihydropyrrolo[3,4-c]pyrazol-6(2H)-one] are 0.12 µM, 0.0743 µM and 0.097 µM.
As to `Cc1nn(C2CC2)c2c1[C@@H](c1ccc(Cl)cc1)N(c1cc(C)c3nnc(C)n3n1)C2=O` [Example 122, (R)-4-(4-chlorophenyl)-1-cyclopropyl-5-(3,8-dimethyl-[1,2,4]triazolo[4,3-b]-pyridazin-6-yl)-3-methyl-4,5-dihydropyrrolo[3,4-c]pyrazol-6(1H)-one], the IC50 in experiment [2] stood at 0.0073 µM.
For the compound `CC(=O)Nc1cc(N2C(=O)c3c(c(C)nn3C3CC3)C2c2ccc(Cl)cc2)nn2c(C)nnc12` (centres unmarked) [Example 126, N-(6-(4-(4-chlorophenyl)-1-cyclopropyl-3-methyl-6-oxopyrrolo[3,4-c]pyrazol-5-(1H,4H,6H)-yl)-3-methyl-[1,2,4]triazolo[4,3-b]pyridazin-8-yl)acetamide], the results for the 50% inhibitory concentration (IC50) in experiment [2] and in experiment [3] were 0.587 µM and over 37 µM, respectively.
`COCc1nn(C2CC2)c2c1C(c1ccc(Cl)cc1)N(c1cc(C)c3nnc(C)n3c1)C2=O` (centres unmarked) [Example 130, 4-(4-chlorophenyl)-1-cyclopropyl-5-(3,8-dimethyl-[1,2,4]triazolo[4,3-a]pyridin-6-yl)-3-(methoxymethyl)-4,5-dihydropyrrolo[3,4-c]pyrazol-6(1H)-one]: the concentration for half-maximal inhibition (IC50) in experiment [2] is 0.0139 µM.

The record behind these values is patent US8975417B2, “Pyrazolopyrrolidine derivatives and their use in the treatment of disease” (Novartis AG, priority 2013, dated 2015).
